{"source": "patent US20030045524A1", "about": "“Alpha-2-adrenergic agonist/fatty acid compositions” (priority 2001, published 2003)", "key": {"[1]": {"system": "Rabbit Intraocular Pressure", "settings": "0.2% complex; for INTRAOCULAR PRESSURE: mean, n=8", "procedure": "In this study, the animals were placed into three groups consisting of a mix of age, size and sex.\nOne group of animals (both sexes) was used per screening study. The test compound (20 L of 0.2% bromonidine-linoleic acid ion pair complex) was administered to the surface of the cornea using an automatic pipette or an appropriate device.\nThe following general procedure for administering the test compound employed in this study is presented below:\n1. Make sure that the 0.25% proparacaine Opthetic5 mixture (topical local anesthetic), test compounds, and commercially available treats are available.\n2. Turn on the Digilab Modular One J Pneuma Tonometer (pneumatonometer) [BioRad, Cambridge, Mass.]; it needs approximately 15 minutes to warm up. Turn on gas supply or air pump.\n3. Hold probe vertically with the point tip down and press “calibration check” for “zero”.\n4. Wipe the pneumatonometer probe with an alcohol swab, and inspect the tip membrane for holes.\n5. Set the external calibration device (air or water manometer) to 25 mm Hg, place the pneumatonometer probe in the calibration device to ensure that it corresponded to 25 2 mm Hg.\n6. Obtain a rabbit. Make sure the recording data sheets are at hand.\n7. Gently restrain the rabbit via a commercial restrainer or a cotton towel. Measure the pupil diameter with the specialized ruler for each eye and record the values on the sheets provided. If the eyes are too dark to obtain a value by this method, a specialized penlight may be used. Obtain a pupil diameter measurement by shining the penlight on the cornea for one second.\n8. Slide the upper eyelid up with the thumb and visually assess and score the degree of ocular surface redness. Record the value for each eye on the sheet provided.\n9. Put one drop of 0.25% proparacaine Opthetic5 (50:50 mix of 0.5% proparacaine Opthetic5+Cellufresh5) on the surface of each eye. Wait one or more minutes for ophthetic to take effect.\n10. Place the pnematonometer tip on one eye at the site where the curvature of the cornea is greatest. Let the probe shank travel to the black line, not the red line. Persist until a stable reading with the standard deviation below 1.0 is obtained. Repeat the procedure for the contralateral eye. Record the data. (Note: If the animal is upset by the restraint, the reading will be artificially high and cannot be used. Use gentle restraint).\n11. At the end of the 0, 6, 24, 30, 48, 54, 72, 78 and 96 hour measurements, use an automatic pipette to apply 20 L of the test compound to the surface of the cornea of one eye. After the 102 hour measurements, the eyes will be washed out with Refresh5 and Prefrin5.\n12. Give the animal a treat and return the animal to its cage.\n13. Repeat steps 7 to 11 on the remaining animals in the group.\nThe following general procedure for measuring the effects of the test compound employed in this study is as follows: a reading is conducted at 0, 2, 4, 6, 24, 26, 28, 30, 48, 50, 52, 54, 72, 74, 76, 78, 96, 98, 100, and 102 hours. The pneumatonometer is calibrated before use with a manometer and the probe tip is wiped with an alcohol swab. One drop of 0.25% proparacaine Opthetic5, a corneal anesthetic, is placed on the cornea. Allow sufficient time (approximately 1 minute) for it to anesthetize the cornea before placing the probe on the eye. The eye is gently opened by the person doing the tonometer reading. The probe is placed on the cornea at the point of greatest curvature and a stable reading is obtained. The probe is held parallel to the floor and perpendicular to the line of the rabbit's sight. The reading is repeated until a reasonable reading can be obtained. The piston should be between the red and black lines or at the black line on the probe.\nValues are mean S.E.M. n=8."}, "Intra Ocular Pressure": {"system": "Intra Ocular Pressure", "settings": "ion pair formulation of 0.131% bromonidine and 0.126% linoleic acid", "text": "The complex is an ion pair formulation of 0.131% bromonidine and 0.126% linoleic acid."}, "monkeys": {"system": "monkeys", "settings": "average of 6 monkeys, 0.2%, scale S=0 to 4", "procedure": "The relative sedative effects of bromonidine-linoleic acid (compound 65) were compared to saline (compound 62) and brimonidine tartrate (compound 60). This study involved cross overs and a one-week wash out in between the administration of the various compounds.\nAs done in a previous experiment, the following method was followed:\n1. 6 trained monkeys were placed in chairs and allowed to acclimate for approximately 30 minutes.\n2. Individual monkeys were brought into the “testing room” where they were allowed to adjust to the new environment for approximately 2 minutes. […] Sedation scores were recorded on an observation sheet.\n3. The monkey was returned to the group of animals assigned to this study.\n4. 2 baseline readings were done at T−0.5 and 0 hour. After the 0 hour reading one drop of the test compound was administered to the right eye.\n5. Steps 2 & 3 were repeated at T=0.5, 1, 2, 3 and 4 hour.\n6. Animals were monitored until they recover from effects of the drug.\n5. Scoring of Sedation was based on the following scale:\nS=0 Monkey is quiet, but slightly active.\nS=1 Monkey is quiet, easy to handle for reading\nS=2 Monkey is quiet, relaxed but very low in activity\nS=3 Monkey is blinking eyes and yawning\n8. The test compounds were coded: 62-Saline, […].\n9. Test Compound Administration:\nThe scoring was conducted for each animal for the different test compounds. The average results are shown on table 1."}}, "note": "Like-named read-outs stand apart in the source and are kept apart here."}
{"molecule": "Brc1c(NC2=NCCN2)ccc2nccnc12.CCCCC/C=C\\C/C=C\\CCCCCCCC(=O)O", "values": [{"measurement": "time for which intraocular pressure in a rabbit's eye is reduced", "setting": "[1]; after administration", "result": "at least 6 hours"}, {"measurement": "duration of the effect of the complex on intraocular pressure", "setting": "[1]; after administration at time 6 hr", "result": "less than 18 hrs"}, {"measurement": "INTRAOCULAR PRESSURE", "setting": "[1]; time 0 hr (initial, dosed after reading)", "result": 25.8, "unit": "mmHg"}, {"measurement": "INTRAOCULAR PRESSURE", "setting": "[1]; time 2 hr", "result": 17.1, "unit": "mmHg"}, {"measurement": "INTRAOCULAR PRESSURE", "setting": "[1]; time 4 hr", "result": 21.1, "unit": "mmHg"}, {"measurement": "INTRAOCULAR PRESSURE", "setting": "[1]; time 6 hr (dosed after reading)", "result": 23.9, "unit": "mmHg"}, {"measurement": "INTRAOCULAR PRESSURE", "setting": "[1]; time 24 hr (dosed after reading)", "result": 25.6, "unit": "mmHg"}, {"measurement": "INTRAOCULAR PRESSURE", "setting": "[1]; time 26 hr", "result": 19.9, "unit": "mmHg"}, {"measurement": "INTRAOCULAR PRESSURE", "setting": "[1]; time 28 hr", "result": 22.9, "unit": "mmHg"}, {"measurement": "INTRAOCULAR PRESSURE", "setting": "[1]; time 30 hr (dosed after reading)", "result": 23.0, "unit": "mmHg"}, {"measurement": "INTRAOCULAR PRESSURE", "setting": "[1]; time 48 hr (dosed after reading)", "result": 26.5, "unit": "mmHg"}, {"measurement": "INTRAOCULAR PRESSURE", "setting": "[1]; time 50 hr", "result": 20.4, "unit": "mmHg"}, {"measurement": "INTRAOCULAR PRESSURE", "setting": "[1]; time 52 hr", "result": 23.4, "unit": "mmHg"}, {"measurement": "INTRAOCULAR PRESSURE", "setting": "[1]; time 54 hr (dosed after reading)", "result": 24.1, "unit": "mmHg"}, {"measurement": "INTRAOCULAR PRESSURE", "setting": "[1]; time 72 hr (dosed after reading)", "result": 26.8, "unit": "mmHg"}, {"measurement": "INTRAOCULAR PRESSURE", "setting": "[1]; time 74 hr", "result": 21.1, "unit": "mmHg"}, {"measurement": "INTRAOCULAR PRESSURE", "setting": "[1]; time 76 hr", "result": 23.9, "unit": "mmHg"}, {"measurement": "INTRAOCULAR PRESSURE", "setting": "[1]; time 78 hr (dosed after reading)", "result": 25.2, "unit": "mmHg"}, {"measurement": "INTRAOCULAR PRESSURE", "setting": "[1]; time 96 hr (dosed after reading)", "result": 27.9, "unit": "mmHg"}, {"measurement": "INTRAOCULAR PRESSURE", "setting": "[1]; time 98 hr", "result": 20.1, "unit": "mmHg"}, {"measurement": "INTRAOCULAR PRESSURE", "setting": "[1]; time 100 hr", "result": 23.9, "unit": "mmHg"}, {"measurement": "INTRAOCULAR PRESSURE", "setting": "[1]; time 102 hr", "result": 25.3, "unit": "mmHg"}, {"measurement": "percent change of Intra Ocular Pressure", "setting": "Intra Ocular Pressure; 1 hr after administration at time 0", "result": "−10.4", "unit": "%"}, {"measurement": "percent change of Intra Ocular Pressure", "setting": "Intra Ocular Pressure; 2 hr after administration at time 0", "result": "−16.0", "unit": "%"}, {"measurement": "percent change of Intra Ocular Pressure", "setting": "Intra Ocular Pressure; 4 hr after administration at time 0", "result": "−09.5", "unit": "%"}, {"measurement": "percent change of Intra Ocular Pressure", "setting": "Intra Ocular Pressure; 6 hr after administration at time 0", "result": "−09.4", "unit": "%"}]}
{"molecule": "brimonidine tartrate [reference compound]", "values": [{"measurement": "SEDATION SCORE", "setting": "monkeys; time 0 hr (baseline, before dosing)", "result": 0.8}, {"measurement": "SEDATION SCORE", "setting": "monkeys; time 0.5 hr after one drop to right eye", "result": 0.8}, {"measurement": "SEDATION SCORE", "setting": "monkeys; time 1 hr after one drop to right eye", "result": 1.7}, {"measurement": "SEDATION SCORE", "setting": "monkeys; time 2 hr after one drop to right eye", "result": 2.6}, {"measurement": "SEDATION SCORE", "setting": "monkeys; time 3 hr after one drop to right eye", "result": 2.5}, {"measurement": "SEDATION SCORE", "setting": "monkeys; time 4 hr after one drop to right eye", "result": 2.7}, {"measurement": "SEDATION SCORE", "setting": "monkeys; time −0.5 hr (baseline, before dosing)", "result": 0.7}]}
